The values that follow come from the NIST ThermoML archive (doi:10.1016/j.jct.2016.12.033).

What is called viscosity is the resistance of a fluid to flow. For orientation: mass density means the mass of a sample divided by its volume.

± gives the expanded uncertainty stated by the source.

For series [1] the following is noted: 101.3 kPa, Liquid; for viscosity: Capillary tube (Ostwald / Ubbelohde) method; for mass density: Pycnometric method.
Series [2] can be described thus: mn = molality of the nth substance listed, in mol/kg. Conditions: 101.3 kPa, Liquid, m2 = 0; for viscosity: Capillary tube (Ostwald / Ubbelohde) method; for mass density: Pycnometric method.

As for `O` [water], the viscosity is recorded as 1.674 ± 0.035 mPa·s in series [1] (275.15 K), 1.567 ± 0.032 mPa·s in series [1] (277.15 K) and 1.472 ± 0.03 mPa·s in series [1] (279.15 K). Also, the mass density in series [1] (275.15 K) came out at 999.94 ± 0.28 kg/m3; in series [1] (277.15 K) it was 999.97 ± 0.28 kg/m3; in series [1] (279.15 K), 999.94 ± 0.28 kg/m3.
Turning to `O` [water] + Cc1ncc(CO)c(CO)c1O.Cl, the viscosity in series [2] (275.15 K) is listed as 1.674 ± 0.035 mPa·s; in series [2] (277.15 K), 1.567 ± 0.032 mPa·s; in series [2] (279.15 K), 1.472 ± 0.03 mPa·s. Besides, the mass density in series [2] (275.15 K) was found to be 999.94 ± 0.28 kg/m3; in series [2] (277.15 K), 999.97 ± 0.28 kg/m3; in series [2] (279.15 K), 999.94 ± 0.27 kg/m3.
As for `O` [water] + Cc1ncc(C[n+]2csc(CCO)c2C)c(N)n1.Cl.[Cl-], the viscosity in series [2] (275.15 K) is 1.674 ± 0.035 mPa·s; in series [2] (277.15 K), 1.567 ± 0.032 mPa·s; in series [2] (279.15 K) it was 1.472 ± 0.03 mPa·s. The mass density in series [2] (275.15 K) was determined as 999.94 ± 0.28 kg/m3; in series [2] (277.15 K) it was 999.97 ± 0.28 kg/m3; in series [2] (279.15 K) it was 999.94 ± 0.28 kg/m3.
As for `O` [water] + O=C1O[C@H]([C@@H](O)CO)C([O-])=C1O.[Na+], the viscosity in series [2] (275.15 K) stood at 1.674 ± 0.035 mPa·s; in series [2] (277.15 K) it was 1.567 ± 0.032 mPa·s; in series [2] (279.15 K) it was 1.472 ± 0.03 mPa·s. Further, the mass density in series [2] (275.15 K) came to 999.94 ± 0.29 kg/m3; in series [2] (277.15 K), 999.97 ± 0.28 kg/m3; in series [2] (279.15 K), 999.94 ± 0.28 kg/m3.
